Laboratory results as given in patent US20240248100A1, “SEPTAPEPTIDES ASSOCIATED WITH NEURODEGENERACY” (SEPTA THERAPEUTICS, INC., priority 2018, published 2024).
“Also recorded” adds a separate entry of the source.

Columns and labels:
RG progenitor cells = assay: Maturation (mitogenic-like) activity on rat glial (RG) progenitor cell monolayers, scored visually; format: cell-based; settings: 72 hours, above untreated baseline
Experimental: Since no appropriate CNS-derived cells are available for the detection of Ca^+2 mobilization, a continuous cell line of glial stem cells was established in culture in order to detect mitogenic-like effects scored upon visual examination. Glial cells from normal brain following kainic acid-induced lesions were established in continuous cell culture as previously described by Singh VK and Van Alstyne D., Brain Res (1978) 155:418-421.) Briefly, 1 ul of a solution of kainic acid monohydrate (Sigma), containing 5 nmole kainic acid in 0.9% saline, was injected into rat striatum under anaesthesia. Rats were anaesthetized and decapitated 5 days following injection and the brains were harvested immediately and placed in a sterile glass culture dish. The striatum from the injection site was dissected, placed in MEM (Gibco) containing 0.2% glucose, 10% fetal calf serum, 5 units/ml penicillin, 5 ug/ml streptomycin and then further minced using a sterile scalpel. The culture dish was then incubated at 37° C. in a humidified atmosphere containing 5% CO2. Each day for the first 3-4 days, the unattached tissue fragments were removed, washed once in fresh medium and returned to the culture dish until a complete monolayer was formed. The resulting monolayers were then subcultured every 5-6 days after trypsinization. The monolayers were treated with 0.25% trypsin (Gibco) for 5 minutes at 22° C. The cells were collected by low speed centrifugation, washed twice with complete growth medium, counted and replated in glass culture dishes. Once the cell line was established in glass dishes, the cells were then adapted and transferred to plastic culture dishes.
The mitogenic effect of diBcAMP on RG monolayers is shown in FIGS. 7A (untreated) and 7B (treated) cells after 24 hours. […] Mature cells were characterized using ThermoFisher Scientific CD11b and GFAP (Glial Fibrillary Acidic Protein) monoclonal antibodies AlexaFluor commonly used to detect microglial- and astrocyte-specific markers respectively. (Tran, E., et al. J. Neuroimmunology 74 (1997) 121-129). FIGS. 8A-8D show identical cells under brightfield illumination, with positive staining for microglial and astrocyte markers (CD11b and GFAP markers respectively. The identification of the majority of these cells as microglia, a subset of astrocytes, is significant since an overabundance of microglia has been associated with the development of AD (Weizmann Institute of Science, “The brain's rejuvenating cells,” Science Daily, 9 June, 2017:sciencedaily.com/release/2017/06/170609135903).
Peptides derived from amyloid beta and synthesized by Kinexus Inc. (Vancouver, Canada) were tested for their effects on RG cell cultures, according to the method of Yankner BR, et al., Science (1990) 250:279-282. Since septapeptides may be too small or unstable to form avid bonds with cell surface receptors, the 7 mer was bracketed within a slightly longer 10-mer construct, in order to maximize stability during the incubation procedure. A randomized sequence was used as a negative control.
These peptides were dissolved in DMSO (dimethyl sulfoxide) to maintain stability. This solvent slightly altered the shape of some cells at lower dilutions of peptide, giving a high background. Therefore, to avoid any interference with the results, RG cells were incubated in the presence of peptide concentrations ranging from […] to 10^-7 M for 72 hours. Positive cells were counted and data are presented as the number greater than the baseline number of maximal mature glia in untreated control cultures achieved by day 3, taken to be zero. Results are shown in Table 3 and photos of transformed cells are contained in FIGS. 9A and 9B.

THP-1 cells = assay: Ca+2 mobilization (Indo-1AM fluorescence) and desensitization in THP-1 monocytic cells; format: cell-based; settings: for DESENSITIZATION: desensitization of subsequent Ca+2 mobilization by MCP-1 or heterologous septapeptide; for Ca^+2 flux: peptide alone
Text: Alternately, chemokine activity can be measured more quantitatively using Ca^+2 mobilization. Chemokines including MCP-1, -2 and -3 bind to several transmembrane, G-protein-linked receptors on the surface of monocytes, macrophages and microglia. Ligand binding induces signal transduction through the receptor-associated heterotrimeric G-proteins, leading to the generation of free Ca^+2 in the cytoplasm of chemokine-stimulated cells. The Ca^+2 rise is transient, and can be measured using a spectrofluorimeter. (The Cytokine Handbook) A typical readout is represented in FIG. 3, showing a positive Ca^+2 mobilization response to MCP-1 in THP-1 cells. THP-1 monocytic cells were loaded with the Ca^+2 indicator dye Indo-1AM and their cytoplasmic Ca^+2 content was measured during laser excitation. As Ca^+2 increases in the cytoplasm, the relative fluorescence intensity (RFI) of the dye increases in real time, exciting the detectors in the spectrofluorimeter. For example, after MCP-1 challenge of THP-1 cells, the RFI increases rapidly, and returns to baseline after about 60 seconds, as exemplified by the “spike” in the trace in FIG. 3 (the smaller peak before the large spike is an artifact generated by the introduction of the sample). Because the heterotrimeric G-proteins involved in the generation of the Ca^+2 signal are both rapidly dissociated and deactivated by phosphorylation, the increase in cytoplasmic Ca^+2 after ligand engagement can be desensitized. Therefore, challenging the cells a second time with MCP-1 would not result in a second spike, nor would a Ca^+2 spike result from subsequent challenge by another ligand which engages the same MCP-1 receptor
Some of the bacterial septapeptide MRHAS's (Sigma) were tested for their ability to increase cytoplasmic Ca^+2, and to desensitize subsequent Ca^+2 mobilization by MCP-1 and heterologous septapeptides. […] These included QQTAPKA (SEQ ID NO: 12) of L.monocytogenes (Figure. 4) and QVQNNKP (SEQ ID NO: 13) from H.influenzae type b (FIG. 5).

RG cells = settings: 1 mM dB-cAMP; cited from earlier work

## ^13HHEQKLVFFAE^22 (HHQKLVFFAE) [Peptide #2]
RG progenitor cells; peptide 10^−6 M (1 uM)
  Maturation activity, % conversion: 41%
RG progenitor cells; peptide 10^−7 M (100 nM)
  Maturation activity, % conversion: 27%
RG progenitor cells; peptide 10^−7 M (100 nM), listed as HHQKLVFFAE
  Maturation activity, % conversion: 27%

## FLVKAHEQFH [Peptide #3, reference compound]
RG progenitor cells; peptide 10^−6 M (1 uM)
  Maturation activity, % conversion: <1%
RG progenitor cells; peptide 10^−7 M (100 nM)
  Maturation activity, % conversion: <1%

## ^1DAEFRHDSGYEVHHQKLVF^19 [Peptide #1]
RG progenitor cells; peptide 10^−6 M (1 uM)
  Maturation activity, % conversion: 63%
RG progenitor cells; peptide 10^−7 M (100 nM)
  Maturation activity, % conversion: 41%

## QVQNNKP [H. influenzae type b-derived MRHAS septapeptide]
THP-1 cells; Ca+2 mobilization response
  relative fluorescence intensity (RFI): 2.0
THP-1 cells
  DESENSITIZATION: blocks activation by the Listeria-derived MRHAS; also recorded: positive for QQTAPKA
  Ca^+2 flux: mild Ca^+2 agonists; also recorded: weakly positive

## MCP-1: human Monocyte Chemoattractant Protein 1, chemokine, positive control
THP-1 cells
  Ca^+2 flux: positive
THP-1 cells; listed as hMCP-1
  Ca^+2 flux: positive Ca^+2 responses

## QQTAPKA [L. monocytogenes-derived MRHAS septapeptide]
THP-1 cells
  DESENSITIZATION: lack of subsequent desensitization to MCP 1; also recorded: negative for MCP-1
  Ca^+2 flux: positive; also recorded: mild Ca^+2 agonists

## QQQPPKA [S. pneumoniae-derived MRHAS septapeptide]
THP-1 cells
  DESENSITIZATION: blocks activation by the Listeria-derived MRHAS; also recorded: positive for QQTAPKA
  Ca^+2 flux: negative; also recorded: did not induce a Ca^+2 signal

## CCCC(=O)Nc1ncnc2c1ncn2[C@@H]1O[C@@H]2COP(=O)(O)O[C@H]2[C@H]1OC(=O)CCC [diBcAMP, dibutyryl cyclicAMP]
RG cells
  cells with intracellular astrocyte-specific GFA protein: 80%
  cells with surface oligodendrocyte-specific galactocerebroside (GC): less than 10%
